# Assays:
# Assay type in all cases: binding
# [1] = biological target: T1, TAMRA-nNOS/PSD-95-PDZ2 interaction (Homo sapiens, UniProt P29475+P78352, V36C); assay: 'direct' FP assay, TAMRA-nNOS / PDZ2 (saturation and inhibition)
# T1 construct: nNOS-PDZ (12–130, human); PDZ2 (155-249); made in house; host or cells: E. coli
# Method: The assay was established by creating a fluorescent version of nNOS-PDZ by TAMRA-labelling nNOS-PDZ via an introduced cysteine residue (V36C). […] However, up to 7.3 μM no inhibition of TAMRA-nNOS/PSD-95-PDZ interactions could be measured (data not shown).
# (a) Saturation curves between TAMRA-nNOS (5 nM) and PDZ1, PDZ2, and PDZ1-2 of PSD-95. […] Error bars indicate SEM based on three individual measurements.
# nNOS-PDZ (12–130, human) and α-Syntrophin-PDZ (82–200, human), both comprising an N-terminal His-tag/FXa-site sequence ([…]), were likewise expressed in E. coli and purified by HisTrap chromatography followed by gel-filtration as described in details previously. To make the TAMRA-labelled nNOS-PDZ, mutant nNOS-PDZ (V36C) protein was generated by standard site-directed mutagenesis and characterized as described previously. […]
# (§1) Incubation time was 10–15 minutes (room temperature), and the assay was performed in a 1 × TBS buffer (150 mM NaCl, 10 mM Tris, pH 7.4) using black flat-bottom 384-well plates (Corning Life Sciences, NY) and a Safire2 plate-reader (Tecan, Männedorf, Switzerland). […] TAMRA- and Cy5-probes were measured at excitation/emission values of 530/585 nm (bandwidth = 20 nm) and 635/670 nm (bandwidth = 15 nm), respectively. […]
# PDZ3 of PSD-95 = biological target: T2, PDZ3 of PSD-95 (Homo sapiens, UniProt P78352); assay: FP inhibition assay, Cy5-CRIPT probe / PDZ3; settings: concentrations reaching 500–1800 μM; Cy5-CRIPT 50 nM; [PDZ3] = 5 μM
# T2 construct: PDZ3 (309-401); made in house; host or cells: E. coli BL21-DE3 pLysS
# Method: (§2) Fluorescent probes were made by attaching fluorophores (Cy5) to C-terminal 10- or 11-mer (C10 or C11) peptide ligands representing canonical and natural occurring protein partners (Supplementary Table S1). […] (Fig. 2).
# (b) Cy5-GluN2B as probe (50 nM), [PDZ2] = 6 μM. (c) Cy5-CRIPT as probe (50 nM), [PDZ3] = 5 μM. […] Error bars indicate SEM based on three individual measurements. […]
# as §1
# (§3) FP values were fitted to the general equation: Y = Bottom + (Top–Bottom)/[1 + (10^(X-logIC50)*HillSlope)], where X is the logarithmic value of peptide/compound concentration, and Y is the experimental FP values. Competitive inhibition constants, Ki values, were calculated from the IC50 values to quantify affinities between test substance and protein[42]. […]
# nNOS-PDZ = biological target: T3, nNOS-PDZ (Homo sapiens, UniProt P29475); assay: FP saturation and inhibition assay, Cy5-Nav1.4 probe / nNOS-PDZ; settings: concentrations reaching 500–1800 μM; Cy5-Nav1.4 50 nM; [nNOS-PDZ] = 20 μM (ZL006) or 10 μM (IC87201)
# T3 construct: nNOS-PDZ (12–130, human); made in house; host or cells: E. coli
# Method: as §2
# (b) Cy5-GluN2B as probe (50 nM), [PDZ2] = 6 μM. (c) Cy5-CRIPT as probe (50 nM), [PDZ3] = 5 μM. […] Error bars indicate SEM based on three individual measurements.
# nNOS-PDZ (12–130, human) and α-Syntrophin-PDZ (82–200, human), both comprising an N-terminal His-tag/FXa-site sequence ([…]), were likewise expressed in E. coli and purified by HisTrap chromatography followed by gel-filtration as described in details previously. To make the TAMRA-labelled nNOS-PDZ, mutant nNOS-PDZ (V36C) protein was generated by standard site-directed mutagenesis and characterized as described previously. Here, dithiothreitol was added to the pooled protein sample after HisTrap purification to a final concentration of 10 mM to eliminate unwanted disulfide bonds, and a final gel-filtration (50 mM NaPi buffer pH 7.5) was performed to remove impurities and salts. Next, purified nNOS-PDZ (V36C) was desalted by dialysis into 50 mM (NH4)2CO3 buffer (SnakeSkin dialysis tubing 3.5 MWCO, Pierce, Rockford, IL, USA) and subsequently lyophilized. nNOS-PDZ (V36C) was redissolved in 500 μL buffer (6 M GnHCl, 200 mM NaPi) and solid TAMRA-maleimide (5-tetramethylrhodamine-C2-maleimide; Anaspec, Fremont, CA, USA) was added in excess (cf. ESI-LC-MS). The coupling reaction was incubated at room temperature for 16 hours and TAMRA-labelled nNOS-PDZ was purified by preparative HPLC, and refolded in assay buffer. Functional validation was performed by FP[19], and all final proteins were characterized for purity and identity by SDS-PAGE and ESI-LC-MS.
# Incubation time was 10–15 minutes (room temperature), and the assay was performed in a 1 × TBS buffer (150 mM NaCl, 10 mM Tris, pH 7.4) using black flat-bottom 384-well plates (Corning Life Sciences, NY) and a Safire2 plate-reader (Tecan, Männedorf, Switzerland). G-factor was adjusted so that probe alone (i.e. without protein interacting-partner) would give an FP value of 20 mP. This background value was subsequently subtracted from the raw data before plotting and analyzing the data. TAMRA- and Cy5-probes were measured at excitation/emission values of 530/585 nm (bandwidth = 20 nm) and 635/670 nm (bandwidth = 15 nm), respectively. […]
# as §3
# [2] = biological target: T4, nNOS-PDZ/PSD-95-PDZ2 interaction (Homo sapiens, UniProt P29475); assay: 'indirect' FP assay, Cnskr2 probe / PSD-95-PDZ2 / nNOS-PDZ; settings: for activity in indirect FP assay (nNOS-PDZ/PSD-95-PDZ2): up to 500–600 μM, Cy5-Cnskr2 5 nM / PSD-95-PDZ2 3 μM / nNOS-PDZ 5 μM
# T4 construct: nNOS-PDZ (12–130, human); PDZ2 (155-249); made in house; host or cells: E. coli
# Source text: First we tested a series of 23 fluorescent-labelled C-terminal peptide ligands (Supplementary Table S1) derived from PDZ-interacting proteins in order to find a probe with good activity towards the PSD-95 PDZ domains and no or little activity against nNOS-PDZ (Supplementary Fig. S1). The Cnskr2 probe fulfilled these selectivity criteria and was used to generate saturation curves with PDZ2 and PDZ1-2 of PSD-95 (Fig. 4a). […] Next, fixed concentrations of TAMRA-Cnskr2, PSD-95-PDZ2/1-2, and nNOS-PDZ were applied, corresponding to the conditions at IC50 of the nNOS-PDZ inhibition curve (Fig. 4b) where sensitivity of the assay is greatest. […] Here, we used the Sapk3-peptide as it has the desired high affinity to α1-Syntrophin-PDZ and low affinity to nNOS-PDZ (Supplementary Fig. S1).
# The minor increases in mP at high concentrations, 260-2900 μM, were due to fluorescence artefacts.
# Similar, this assay was established with Syntrophin-PDZ and Sapk3 as probe (Fig. 4d).
# In all cases, the DMSO effect on the assay was tested and found negligible.
# T4 sequence (P29475 12-130): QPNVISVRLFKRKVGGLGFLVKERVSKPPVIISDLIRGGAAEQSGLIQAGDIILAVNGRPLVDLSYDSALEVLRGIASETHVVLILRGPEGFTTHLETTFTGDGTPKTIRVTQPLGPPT
# T2 sequence (P78352 309-401): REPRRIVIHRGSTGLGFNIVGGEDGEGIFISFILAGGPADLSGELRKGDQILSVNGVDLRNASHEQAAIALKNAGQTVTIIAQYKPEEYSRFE
# T3 sequence (P29475 12-130): as the sequence (P29475 12-130) above
# T1 sequence (P29475 12-130 V36C): as the sequence (P29475 12-130) above, with V25C counted along it
# T1 sequence (P78352 155-249): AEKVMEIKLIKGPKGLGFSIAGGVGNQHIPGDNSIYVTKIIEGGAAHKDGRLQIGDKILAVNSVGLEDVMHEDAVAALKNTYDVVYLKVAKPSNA
"inhibition of TAMRA-nNOS/PDZ2 interaction ([1]; up to 7.3 μM (fluorescence artefacts above), data not shown)",inhibition of probe-PDZ interaction (PDZ3) (PDZ3 of PSD-95),inhibition of probe-PDZ interaction (nNOS-PDZ) (nNOS-PDZ),activity in indirect FP assay (nNOS-PDZ/PSD-95-PDZ2) [2],"inhibition of TAMRA-nNOS/PDZ2 interaction ([1]; tested at up to 1200 μM, TAMRA-nNOS 5 nM, PDZ2 2.5 μM)","rise in FP signal (inhibition of nNOS-PDZ/PSD-95-PDZ2) ([2]; ZL006 0-2900 μM, TAMRA-Cnskr2 5 nM / PSD-95-PDZ2 […] / nNOS-PDZ 1 μM)",SMILES
no inhibition,did not inhibit,did not inhibit,no activity,–,–,"Oc1c(Cl)cc(Cl)cc1CNc1ccc2[nH]nnc2c1 [IC87201, 2-((1H-Benzo[d][1–3]triazol-5-ylamino)methyl)-4-6-dichlorophenol]"
–,did not inhibit,did not inhibit,no activity,no activity,no rise in FP signal,"O=C(O)c1ccc(NCc2cc(Cl)cc(Cl)c2O)cc1O [ZL006, 4-((3,5-Dichloro-2-hydroxybenzyl)amino)-2-hydroxybenzoic acid]"
